Assay results reported in ChEMBL document CHEMBL1201862, “PubChem BioAssay data set” (2004).
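Test compounds were applied to cells in 96-well plates for 48 hours at 5 doses. GI50: concentration for 50% inhibition of growth.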 Active and inactive are the calls of the source. No stated cut-off is given here; in the data, active = GI50 up to about 1.1 µM and inactive = higher.

Experiments:
Experiment in all cases: NCI tumour cell line growth inhibition, 48 h
NCI-H460 = tested on: NCI-H460
RPMI-8226 = tested on: RPMI-8226
SF-268 = tested on: SF-268
SNB-19 = tested on: SNB-19
T47D = tested on: T47D
SF-539 = tested on: SF-539
DU-145 = tested on: DU-145
HCT-116 = tested on: HCT-116
SW-620 = tested on: SW-620
MOLT-4 = tested on: MOLT-4
PC-3 = tested on: PC-3
Hs-578T = tested on: Hs-578T
HL-60 = tested on: HL-60
SK-MEL-2 = tested on: SK-MEL-2
SF-295 = tested on: SF-295
NCI/ADR-RES = tested on: NCI/ADR-RES
NCI-H226 = tested on: NCI-H226
HT-29 = tested on: HT-29
UO-31 = tested on: UO-31
HOP-62 = tested on: HOP-62

Measured: GI50

S=C1SCN(C2CCCCCCCCCCC2)CN1C1CCCCCCCCCCC1
inactive: NCI-H460 > 100 µM | RPMI-8226 47.5 µM | SF-268 > 100 µM | SNB-19 > 100 µM | T47D > 100 µM | SF-539 > 100 µM | DU-145 > 100 µM | HCT-116 > 100 µM | SW-620 > 100 µM | MOLT-4 46.1 µM | PC-3 > 100 µM | Hs-578T > 100 µM | HL-60 38.2 µM | SK-MEL-2 > 100 µM | SF-295 > 100 µM | NCI/ADR-RES > 100 µM | NCI-H226 > 100 µM | HT-29 > 100 µM | UO-31 > 100 µM | HOP-62 67.6 µM

COc1cc(/N=N/c2cccc(S(N)(=O)=O)c2)c2ccccc2c1N
inactive: NCI-H460 9.98 µM | RPMI-8226 16.3 µM | SF-268 15 µM | SNB-19 14.6 µM | T47D 13.2 µM | SF-539 3.05 µM | DU-145 1.9 µM | HCT-116 14.7 µM | SW-620 23.9 µM | MOLT-4 5.65 µM | PC-3 11.5 µM | Hs-578T 2.67 µM | HL-60 5.2 µM | SK-MEL-2 2.26 µM | SF-295 10.5 µM | NCI/ADR-RES 22 µM | NCI-H226 19.9 µM | HT-29 15.2 µM | UO-31 15.3 µM | HOP-62 7.35 µM

CC(=O)N(C(=O)CC(=O)N1N=C(c2ccccc2)C(/N=N/c2ccccc2[N+](=O)[O-])C1=O)c1ccc(Cl)cc1 (stereo not given)
inactive: NCI-H460 > 10 µM | RPMI-8226 > 10 µM | SF-268 > 10 µM | SNB-19 > 10 µM | T47D > 10 µM | SF-539 > 10 µM | DU-145 > 10 µM | HCT-116 > 10 µM | SW-620 > 10 µM | MOLT-4 > 10 µM | PC-3 > 10 µM | Hs-578T > 10 µM | HL-60 > 10 µM | SK-MEL-2 > 10 µM | SF-295 > 10 µM | NCI/ADR-RES > 10 µM | NCI-H226 > 10 µM | HT-29 > 10 µM | UO-31 > 10 µM | HOP-62 > 10 µM

O=C(C1OC1c1ccc(O)cc1)C12CC3CC(CC(C3)C1)C2 (stereo not given)
inactive: NCI-H460 > 80.9 µM | RPMI-8226 27 µM | SF-268 > 87.1 µM | SNB-19 > 100 µM | T47D 22.9 µM | SF-539 45 µM | DU-145 > 100 µM | HCT-116 41.5 µM | SW-620 27.7 µM | MOLT-4 17.8 µM | PC-3 85.5 µM | Hs-578T > 100 µM | HL-60 10.9 µM | SK-MEL-2 > 100 µM | SF-295 > 88.9 µM | NCI/ADR-RES 52.1 µM | NCI-H226 > 100 µM | HT-29 > 100 µM | UO-31 32.1 µM | HOP-62 > 100 µM

O=c1[nH]c(=O)n(C2CC(O)C(CS)O2)cc1F (stereo not given)
inactive: NCI-H460 6.87 µM | RPMI-8226 67 µM | SF-268 20.8 µM | SNB-19 98.4 µM | T47D > 76.2 µM | SF-539 11 µM | DU-145 61.2 µM | HCT-116 56.6 µM | SW-620 > 86.1 µM | MOLT-4 62.5 µM | PC-3 81.3 µM | Hs-578T > 100 µM | HL-60 > 63.8 µM | SK-MEL-2 > 100 µM | SF-295 47 µM | NCI/ADR-RES 5.4 µM | NCI-H226 > 100 µM | HT-29 66.1 µM | UO-31 60.4 µM | HOP-62 37.2 µM

CC1(c2cccs2)CC(c2cccs2)=C(C#N)C(=C(C#N)C#N)N1 (stereo not given)
inactive: NCI-H460 20.2 µM | RPMI-8226 17.5 µM | SF-268 18.2 µM | SNB-19 18.7 µM | T47D 16.6 µM | SF-539 25.2 µM | DU-145 15.6 µM | HCT-116 17.3 µM | SW-620 11.4 µM | MOLT-4 44.7 µM | PC-3 15.4 µM | Hs-578T 30.9 µM | HL-60 10.1 µM | SK-MEL-2 17.8 µM | SF-295 16.9 µM | NCI/ADR-RES 21.3 µM | NCI-H226 22.3 µM | HT-29 17.9 µM | UO-31 18.9 µM | HOP-62 19.9 µM

Cc1cc2ccccc2n1CC(=O)NCC(C)C
inactive: NCI-H460 > 100 µM | RPMI-8226 > 100 µM | SF-268 > 100 µM | SNB-19 > 100 µM | T47D > 100 µM | SF-539 > 100 µM | DU-145 > 100 µM | HCT-116 > 100 µM | SW-620 > 100 µM | MOLT-4 > 100 µM | PC-3 > 100 µM | Hs-578T > 100 µM | HL-60 > 100 µM | SK-MEL-2 > 100 µM | SF-295 > 100 µM | NCI/ADR-RES > 100 µM | NCI-H226 > 100 µM | HT-29 > 100 µM | UO-31 > 100 µM | HOP-62 > 100 µM

COc1nc2nccnc2c(=O)n1C
inactive: NCI-H460 > 10 µM | RPMI-8226 > 10 µM | SF-268 > 10 µM | SNB-19 > 10 µM | T47D > 10 µM | SF-539 > 10 µM | DU-145 > 10 µM | HCT-116 > 10 µM | SW-620 > 10 µM | MOLT-4 > 10 µM | PC-3 > 10 µM | Hs-578T > 10 µM | HL-60 > 10 µM | SK-MEL-2 > 10 µM | SF-295 > 10 µM | NCI/ADR-RES > 10 µM | NCI-H226 > 10 µM | HT-29 > 10 µM | UO-31 > 10 µM | HOP-62 > 10 µM

CCOC(=O)C1(C(=O)OCC)C[C@H]2CON=C2[C@@H]1c1ccc(C(F)(F)F)cc1
inactive: NCI-H460 42.9 µM | RPMI-8226 26.5 µM | SF-268 > 100 µM | SNB-19 > 100 µM | T47D 16.7 µM | SF-539 > 100 µM | DU-145 > 100 µM | HCT-116 29.6 µM | SW-620 68.1 µM | MOLT-4 25.9 µM | PC-3 42.9 µM | Hs-578T 98.6 µM | HL-60 27.7 µM | SK-MEL-2 62.2 µM | SF-295 41.5 µM | NCI/ADR-RES 32.6 µM | NCI-H226 34.9 µM | HT-29 32 µM | UO-31 14.2 µM | HOP-62 21.9 µM

COc1cc2c(cc1O)[C@]1(Cc3ccc4c(c3C1=O)OCO4)N(C)CC2
inactive: NCI-H460 > 100 µM | RPMI-8226 > 100 µM | SF-268 > 100 µM | SNB-19 > 100 µM | T47D > 100 µM | SF-539 > 100 µM | DU-145 > 100 µM | HCT-116 > 100 µM | SW-620 > 100 µM | MOLT-4 > 100 µM | PC-3 > 100 µM | Hs-578T > 100 µM | HL-60 > 100 µM | SK-MEL-2 > 100 µM | SF-295 > 100 µM | NCI/ADR-RES > 100 µM | NCI-H226 > 100 µM | HT-29 > 100 µM | UO-31 > 100 µM | HOP-62 > 100 µM
